Tests used:
Assay in all cases: KINOMEscan competition binding
Details in all cases: compound 10.0 µM
FER (human) = FER (human) (UniProt P16591)
MAPK3 (human) = MAPK3 (human) (UniProt P27361)
CaMK1 (human) = CaMK1 (human) (UniProt Q14012)
PIM2 (human) = PIM2 (human) (UniProt Q9P1W9)
[1] = system: BRAF (human), P15056 [V600E]
EPHA8 (human) = EPHA8 (human) (UniProt P29322)
CDC42BPA (human) = CDC42BPA (human) (UniProt Q5VT25)
FGFR3 (human) = FGFR3 (human) (UniProt P22607)
PRKCE (human) = PRKCE (human) (UniProt Q02156)
IRAK3 (human) = IRAK3 (human) (UniProt Q9Y616)
PRKD2 (human) = PRKD2 (human) (UniProt Q9BZL6)
CDC42BPG (human) = CDC42BPG (human) (UniProt Q6DT37)
MAP3K12 (human) = MAP3K12 (human) (UniProt Q12852)
TLK2 (human) = TLK2 (human) (UniProt Q86UE8)
[2] = system: KIT (human), P10721 [V559D/V654A]
NEK6 (human) = NEK6 (human) (UniProt Q9HC98)
AKT1 (human) = AKT1 (human) (UniProt P31749)
[3] = system: EGFR (human), P00533 [G719C]
PAK2 (human) = PAK2 (human) (UniProt Q13177)
PRKCI (human) = PRKCI (human) (UniProt P41743)
PDGFRA (human) = PDGFRA (human) (UniProt P16234)
PKN2 (human) = PKN2 (human) (UniProt Q16513)
RPS6KA2 KD1 (human) = RPS6KA2 KD1 (human) (UniProt Q15349)
CDK4 CCND3 (human) = CDK4 CCND3 (human) (UniProt P11802+P30281)
PKN3 (M.tuberculosis) = PKN3 (M.tuberculosis) (UniProt Q6P5Z2)
TAOK2 (human) = TAOK2 (human) (UniProt Q9UL54)
PIP5K1A (human) = PIP5K1A (human) (UniProt Q99755)
MAP2K6 (human) = MAP2K6 (human) (UniProt P52564)
DAPK3 (human) = DAPK3 (human) (UniProt O43293)
CDC42BPB (human) = CDC42BPB (human) (UniProt Q9Y5S2)
RPS6KA3 KD1 (human) = RPS6KA3 KD1 (human) (UniProt P51812)
SYK (human) = SYK (human) (UniProt P43405)
ERBB2 (human) = ERBB2 (human) (UniProt P04626)
MAPKAPK2 (human) = MAPKAPK2 (human) (UniProt P49137)
NEK3 (human) = NEK3 (human) (UniProt P51956)
MTOR (human) = MTOR (human) (UniProt P42345)
MAP4K2 (human) = MAP4K2 (human) (UniProt Q12851)
CDK8 (human) = CDK8 (human) (UniProt P49336)
CDK13 (human) = CDK13 (human) (UniProt Q14004)
TGFBR1 (human) = TGFBR1 (human) (UniProt P36897)
STK11 (human) = STK11 (human) (UniProt Q15831)

CDC42BPB (human), sequence (Q9Y5S2 whole entry, looked up): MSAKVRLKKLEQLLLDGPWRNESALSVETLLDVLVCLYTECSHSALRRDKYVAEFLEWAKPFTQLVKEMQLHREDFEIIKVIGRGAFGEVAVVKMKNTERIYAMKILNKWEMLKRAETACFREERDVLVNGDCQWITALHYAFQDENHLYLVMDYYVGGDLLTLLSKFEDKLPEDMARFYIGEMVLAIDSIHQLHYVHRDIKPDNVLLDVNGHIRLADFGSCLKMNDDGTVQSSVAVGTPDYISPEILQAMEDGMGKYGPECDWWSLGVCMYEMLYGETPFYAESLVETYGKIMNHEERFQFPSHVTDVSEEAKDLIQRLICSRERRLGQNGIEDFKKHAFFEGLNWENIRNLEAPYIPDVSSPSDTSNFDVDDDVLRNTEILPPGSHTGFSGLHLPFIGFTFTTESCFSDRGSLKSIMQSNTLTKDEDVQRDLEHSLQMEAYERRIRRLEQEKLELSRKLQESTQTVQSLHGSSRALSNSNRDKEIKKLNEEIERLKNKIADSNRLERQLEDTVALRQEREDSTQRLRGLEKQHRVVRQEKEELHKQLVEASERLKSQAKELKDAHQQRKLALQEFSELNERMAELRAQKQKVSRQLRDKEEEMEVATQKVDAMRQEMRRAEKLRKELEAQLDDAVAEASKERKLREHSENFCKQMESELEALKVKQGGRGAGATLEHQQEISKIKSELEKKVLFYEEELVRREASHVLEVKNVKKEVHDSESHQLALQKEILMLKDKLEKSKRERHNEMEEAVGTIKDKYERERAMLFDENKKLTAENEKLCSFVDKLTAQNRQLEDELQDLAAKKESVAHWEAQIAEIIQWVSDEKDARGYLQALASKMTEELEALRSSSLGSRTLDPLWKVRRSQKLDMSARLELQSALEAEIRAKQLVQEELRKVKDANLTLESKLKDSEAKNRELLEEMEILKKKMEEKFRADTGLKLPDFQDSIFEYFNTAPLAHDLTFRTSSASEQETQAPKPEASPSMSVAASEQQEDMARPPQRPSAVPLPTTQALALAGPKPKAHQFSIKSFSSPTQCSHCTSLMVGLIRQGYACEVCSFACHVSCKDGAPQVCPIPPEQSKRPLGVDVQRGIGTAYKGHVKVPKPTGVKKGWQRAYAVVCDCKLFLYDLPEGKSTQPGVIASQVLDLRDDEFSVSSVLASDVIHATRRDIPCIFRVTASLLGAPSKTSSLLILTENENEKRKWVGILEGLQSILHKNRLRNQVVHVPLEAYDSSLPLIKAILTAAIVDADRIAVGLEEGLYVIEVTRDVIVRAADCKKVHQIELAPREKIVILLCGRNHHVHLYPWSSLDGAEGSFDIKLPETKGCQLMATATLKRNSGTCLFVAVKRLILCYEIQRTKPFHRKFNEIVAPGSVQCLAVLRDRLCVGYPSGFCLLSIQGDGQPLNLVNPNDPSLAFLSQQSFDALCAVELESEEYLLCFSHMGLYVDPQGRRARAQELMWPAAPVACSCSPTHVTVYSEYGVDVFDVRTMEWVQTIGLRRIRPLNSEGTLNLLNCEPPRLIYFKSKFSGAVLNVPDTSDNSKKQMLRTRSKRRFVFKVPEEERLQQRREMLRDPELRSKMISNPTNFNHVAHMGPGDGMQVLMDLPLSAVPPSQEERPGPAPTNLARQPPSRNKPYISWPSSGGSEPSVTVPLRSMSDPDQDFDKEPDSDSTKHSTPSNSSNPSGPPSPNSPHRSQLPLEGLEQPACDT
MAPKAPK2 (human), sequence (P49137 whole entry, looked up): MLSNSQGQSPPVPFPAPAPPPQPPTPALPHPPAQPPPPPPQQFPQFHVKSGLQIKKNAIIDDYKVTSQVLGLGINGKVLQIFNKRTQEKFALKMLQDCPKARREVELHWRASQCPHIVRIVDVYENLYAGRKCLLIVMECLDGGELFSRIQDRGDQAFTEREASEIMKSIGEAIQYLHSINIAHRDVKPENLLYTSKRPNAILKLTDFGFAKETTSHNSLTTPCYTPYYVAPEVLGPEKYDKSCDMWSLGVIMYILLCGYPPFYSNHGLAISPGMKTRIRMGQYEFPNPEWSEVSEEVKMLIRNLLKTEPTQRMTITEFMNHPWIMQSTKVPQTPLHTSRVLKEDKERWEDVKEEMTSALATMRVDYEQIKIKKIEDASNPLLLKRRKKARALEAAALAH
PKN3 (M.tuberculosis), sequence (Q6P5Z2 whole entry, looked up): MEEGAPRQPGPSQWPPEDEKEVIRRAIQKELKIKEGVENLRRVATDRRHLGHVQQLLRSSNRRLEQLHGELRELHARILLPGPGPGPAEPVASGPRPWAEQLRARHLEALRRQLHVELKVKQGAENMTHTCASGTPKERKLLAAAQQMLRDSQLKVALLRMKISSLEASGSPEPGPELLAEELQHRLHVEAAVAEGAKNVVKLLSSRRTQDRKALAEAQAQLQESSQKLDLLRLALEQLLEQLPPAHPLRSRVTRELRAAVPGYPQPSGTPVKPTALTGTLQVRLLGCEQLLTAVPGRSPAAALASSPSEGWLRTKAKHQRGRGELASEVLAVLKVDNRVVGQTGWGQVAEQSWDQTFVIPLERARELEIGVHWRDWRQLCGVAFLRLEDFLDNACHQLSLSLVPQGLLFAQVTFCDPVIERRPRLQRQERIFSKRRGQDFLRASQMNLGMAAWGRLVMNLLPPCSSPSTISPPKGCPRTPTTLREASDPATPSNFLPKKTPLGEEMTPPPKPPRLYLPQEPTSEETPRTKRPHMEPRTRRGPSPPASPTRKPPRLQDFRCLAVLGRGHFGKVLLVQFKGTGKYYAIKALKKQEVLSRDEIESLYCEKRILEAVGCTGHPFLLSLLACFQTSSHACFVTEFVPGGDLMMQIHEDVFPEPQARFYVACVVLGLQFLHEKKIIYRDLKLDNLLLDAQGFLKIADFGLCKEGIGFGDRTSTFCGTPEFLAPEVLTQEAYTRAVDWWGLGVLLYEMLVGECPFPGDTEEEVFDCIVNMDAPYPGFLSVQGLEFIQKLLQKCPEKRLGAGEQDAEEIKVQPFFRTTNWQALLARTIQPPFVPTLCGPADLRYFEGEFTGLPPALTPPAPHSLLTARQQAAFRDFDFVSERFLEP
PRKCI (human), sequence (P41743 whole entry, looked up): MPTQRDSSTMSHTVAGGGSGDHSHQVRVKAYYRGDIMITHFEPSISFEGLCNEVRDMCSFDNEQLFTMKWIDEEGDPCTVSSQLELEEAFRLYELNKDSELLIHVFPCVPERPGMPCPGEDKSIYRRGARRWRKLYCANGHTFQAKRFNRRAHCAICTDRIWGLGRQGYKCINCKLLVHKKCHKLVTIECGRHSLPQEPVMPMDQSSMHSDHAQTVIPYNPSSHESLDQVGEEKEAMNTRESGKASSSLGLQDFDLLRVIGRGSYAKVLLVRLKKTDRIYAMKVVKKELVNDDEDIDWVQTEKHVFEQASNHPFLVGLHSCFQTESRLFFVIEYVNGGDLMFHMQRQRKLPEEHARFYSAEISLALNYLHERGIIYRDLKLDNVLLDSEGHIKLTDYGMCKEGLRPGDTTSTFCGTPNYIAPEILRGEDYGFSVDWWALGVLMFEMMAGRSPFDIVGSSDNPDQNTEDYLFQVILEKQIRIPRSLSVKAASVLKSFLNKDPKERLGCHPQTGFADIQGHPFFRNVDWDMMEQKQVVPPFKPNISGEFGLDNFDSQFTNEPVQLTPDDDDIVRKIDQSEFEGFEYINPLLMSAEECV
MAP3K12 (human), sequence (Q12852 whole entry, looked up): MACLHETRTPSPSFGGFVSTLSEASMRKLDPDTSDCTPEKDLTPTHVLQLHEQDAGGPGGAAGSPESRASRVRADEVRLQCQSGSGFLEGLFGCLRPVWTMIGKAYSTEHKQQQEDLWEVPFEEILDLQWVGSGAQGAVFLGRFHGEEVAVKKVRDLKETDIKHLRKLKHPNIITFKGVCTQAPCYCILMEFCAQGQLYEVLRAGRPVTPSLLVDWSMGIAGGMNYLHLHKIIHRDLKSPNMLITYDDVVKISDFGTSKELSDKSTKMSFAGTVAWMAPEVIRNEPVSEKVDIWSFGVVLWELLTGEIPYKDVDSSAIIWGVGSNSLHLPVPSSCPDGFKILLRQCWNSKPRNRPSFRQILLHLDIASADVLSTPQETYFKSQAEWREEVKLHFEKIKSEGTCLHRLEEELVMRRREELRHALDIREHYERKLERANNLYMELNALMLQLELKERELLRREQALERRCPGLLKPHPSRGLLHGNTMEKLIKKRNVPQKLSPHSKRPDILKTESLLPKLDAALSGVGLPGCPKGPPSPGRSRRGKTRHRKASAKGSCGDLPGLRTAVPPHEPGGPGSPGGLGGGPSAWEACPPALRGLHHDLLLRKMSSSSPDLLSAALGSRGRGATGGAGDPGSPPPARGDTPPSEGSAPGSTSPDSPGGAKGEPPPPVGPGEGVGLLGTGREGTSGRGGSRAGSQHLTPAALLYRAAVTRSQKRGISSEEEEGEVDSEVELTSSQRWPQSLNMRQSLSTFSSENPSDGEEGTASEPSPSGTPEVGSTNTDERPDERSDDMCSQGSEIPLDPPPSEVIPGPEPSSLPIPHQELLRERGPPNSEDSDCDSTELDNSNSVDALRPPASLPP
NEK3 (human), sequence (P51956 whole entry, looked up): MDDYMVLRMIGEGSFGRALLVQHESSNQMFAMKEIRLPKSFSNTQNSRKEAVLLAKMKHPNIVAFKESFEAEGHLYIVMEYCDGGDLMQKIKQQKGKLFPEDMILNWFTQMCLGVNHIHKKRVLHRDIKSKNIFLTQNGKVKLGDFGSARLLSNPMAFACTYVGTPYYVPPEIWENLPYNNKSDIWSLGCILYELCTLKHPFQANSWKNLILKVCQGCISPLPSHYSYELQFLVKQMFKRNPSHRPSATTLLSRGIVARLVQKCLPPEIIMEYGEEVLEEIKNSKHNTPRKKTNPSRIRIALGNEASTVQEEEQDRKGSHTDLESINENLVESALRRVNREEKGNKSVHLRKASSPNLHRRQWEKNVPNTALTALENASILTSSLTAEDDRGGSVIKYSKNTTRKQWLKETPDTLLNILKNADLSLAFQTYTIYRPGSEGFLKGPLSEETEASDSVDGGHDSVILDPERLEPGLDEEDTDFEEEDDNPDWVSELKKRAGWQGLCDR

## COc1cc(C(=O)N2CCC(N3CCN(C)CC3)CC2)ccc1Nc1ncc2c(n1)N(C)c1ccccc1C(=O)N2C
FER (human)
  kinase still bound, per cent of control: 51%
MAPK3 (human)
  kinase still bound, per cent of control: 100%
CaMK1 (human)
  kinase still bound, per cent of control: 55%
PIM2 (human)
  kinase still bound, per cent of control: 100%
[1]
  kinase still bound, per cent of control: 100%
EPHA8 (human)
  kinase still bound, per cent of control: 80%
CDC42BPA (human)
  kinase still bound, per cent of control: 100%
FGFR3 (human)
  kinase still bound, per cent of control: 80%
PRKCE (human)
  kinase still bound, per cent of control: 100%
IRAK3 (human)
  kinase still bound, per cent of control: 100%
PRKD2 (human)
  kinase still bound, per cent of control: 59%
CDC42BPG (human)
  kinase still bound, per cent of control: 100%
MAP3K12 (human)
  residual activity: 81%
TLK2 (human)
  kinase still bound, per cent of control: 99%
[2]
  kinase still bound, per cent of control: 100%
NEK6 (human)
  kinase still bound, per cent of control: 76%
AKT1 (human)
  kinase still bound, per cent of control: 79%
[3]
  kinase still bound, per cent of control: 100%
PAK2 (human)
  kinase still bound, per cent of control: 65%
PRKCI (human)
  kinase still bound, per cent of control: 100%
PDGFRA (human)
  kinase still bound, per cent of control: 100%
PKN2 (human)
  kinase still bound, per cent of control: 95%
RPS6KA2 KD1 (human)
  kinase still bound, per cent of control: 83%
CDK4 CCND3 (human)
  residual activity: 100%
PKN3 (M.tuberculosis)
  kinase still bound, per cent of control: 100%
TAOK2 (human)
  kinase still bound, per cent of control: 65%
PIP5K1A (human)
  kinase still bound, per cent of control: 90%
MAP2K6 (human)
  kinase still bound, per cent of control: 83%
DAPK3 (human)
  kinase still bound, per cent of control: 67%
CDC42BPB (human)
  kinase still bound, per cent of control: 100%
RPS6KA3 KD1 (human)
  kinase still bound, per cent of control: 77%
SYK (human)
  kinase still bound, per cent of control: 100%
ERBB2 (human)
  kinase still bound, per cent of control: 100%
MAPKAPK2 (human)
  kinase still bound, per cent of control: 100%
NEK3 (human)
  kinase still bound, per cent of control: 100%
MTOR (human)
  kinase still bound, per cent of control: 97%
MAP4K2 (human)
  kinase still bound, per cent of control: 100%
CDK8 (human)
  residual activity: 100%
CDK13 (human)
  residual activity: 100%
TGFBR1 (human)
  kinase still bound, per cent of control: 100%
STK11 (human)
  kinase still bound, per cent of control: 96%

— the kinase profiling compilation of Christmann-Franck et al. (2016)
